Molecular target: human P2X3 receptor (Homo sapiens (Human), UniProt P56373)
Test: Evaluation of human P2X3 receptor inhibitory activity (Fluo-3 calcium fluorescence, FDSS 3000, ATP stimulation);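 further: stimulus was 50 nM ATP with fluorescence followed for 3 min, and the response per well was peak post-ATP fluorescence divided by the reading at measurement start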
Format: cell-based
Conditions: C6BU-1 cells stably expressing human P2X3 receptor

human P2X3 receptor, sequence (P56373 whole entry): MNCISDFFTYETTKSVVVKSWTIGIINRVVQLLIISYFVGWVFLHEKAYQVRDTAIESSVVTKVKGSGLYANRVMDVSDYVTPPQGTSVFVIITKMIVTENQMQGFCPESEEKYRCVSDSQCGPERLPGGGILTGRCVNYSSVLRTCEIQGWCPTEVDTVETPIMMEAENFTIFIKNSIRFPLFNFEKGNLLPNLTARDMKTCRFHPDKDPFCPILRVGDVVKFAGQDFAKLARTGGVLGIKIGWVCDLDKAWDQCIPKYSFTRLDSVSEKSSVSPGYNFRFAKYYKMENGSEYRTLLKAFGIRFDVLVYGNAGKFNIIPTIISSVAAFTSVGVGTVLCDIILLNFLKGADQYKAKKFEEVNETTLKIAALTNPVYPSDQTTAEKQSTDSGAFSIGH

Row | SMILES | IC50
1 | COc1cc(/N=c2\[nH]c(=O)n(C[C@H](C)C(=O)O)c(=O)n2Cc2ccc(C)cc2)ccc1Br [Compound I-1244] | 0.473 µM
2 | COC(=O)CCCn1c(=O)[nH]/c(=N\c2ccc(Oc3ccncc3)cc2)n(Cc2ccc(Cl)cc2)c1=O [Compound I-1245] | 0.003 µM
3 | CCOC(=O)CCn1c(=O)[nH]/c(=N\c2ccc(OC(C)C)c(OC)c2)n(Cc2ccc(C)cc2)c1=O [Compound I-1246] | 0.006 µM
4 | COC(=O)[C@@H](C)Cn1c(=O)[nH]/c(=N\c2ccc(CC(C)C)c(OC)c2)n(Cc2ccc(Cl)cc2)c1=O [Compound I-1247] | 0.028 µM
5 | CCOC(=O)CCn1c(=O)[nH]/c(=N\c2ccc(OC(C)C)c(OC)c2)n(Cc2ccc(Cl)cc2)c1=O [Compound I-1248] | 0.006 µM
6 | COC(=O)[C@@H](C)Cn1c(=O)[nH]/c(=N\c2ccc(CC(C)C)c(OC)c2)n(Cc2ccc(C)cc2)c1=O [Compound I-1249] | 0.021 µM
7 | CCCc1ccc(/N=c2\[nH]c(=O)n(CCC(=O)OCC)c(=O)n2Cc2ccc(Cl)cc2)cc1C [Compound I-1250] | 0.054 µM
8 | CCOC(=O)CCn1c(=O)[nH]/c(=N\c2ccc(CC(C)C)c(C)c2)n(Cc2ccc(Cl)cc2)c1=O [Compound I-1251] | 0.017 µM
9 | COC(=O)[C@@H](C)Cn1c(=O)[nH]/c(=N\c2ccc(CC(C)C)c(F)c2)n(Cc2ccc(C)cc2)c1=O [Compound I-1252] | 0.023 µM
10 | CCCc1ccc(/N=c2\[nH]c(=O)n(CCC(=O)O)c(=O)n2Cc2ccc(Cl)cc2)cc1C [Compound I-1253] | 0.281 µM
11 | COC(=O)[C@@H](C)Cn1c(=O)[nH]/c(=N\c2ccc(CC(C)C)c(F)c2)n(Cc2ccc(Cl)cc2)c1=O [Compound I-1254] | 0.045 µM
12 | Cc1cc(/N=c2\[nH]c(=O)n(CCC(=O)O)c(=O)n2Cc2ccc(Cl)cc2)ccc1CC(C)C [Compound I-1255] | 0.048 µM
13 | Cc1ccc(Cn2c(=O)n(C[C@H](C)C(=O)O)c(=O)[nH]/c2=N\c2ccc(CC(C)C)c(F)c2)cc1 [Compound I-1256] | 0.018 µM
14 | CC(C)Cc1ccc(/N=c2\[nH]c(=O)n(C[C@H](C)C(=O)O)c(=O)n2Cc2ccc(Cl)cc2)cc1F [Compound I-1257] | 0.009 µM
15 | COC(=O)C(C)(C)Cn1c(=O)[nH]/c(=N\c2cccc(C(F)(F)F)c2)n(Cc2ccc(C)cc2)c1=O [Compound I-1258] | 0.008 µM
16 | O=C(O)CCCn1c(=O)[nH]/c(=N\c2ccc(Oc3ccncc3)cc2)n(Cc2ccc(Cl)cc2)c1=O [Compound I-1259] | 0.011 µM
17 | Cc1ccc(Cn2c(=O)n(C[C@H](C)C(=O)O)c(=O)[nH]/c2=N\c2ccc(Oc3cc(C)nc(C)c3)cc2)cc1 [Compound I-1260] | 0.031 µM
18 | COc1cc(/N=c2\[nH]c(=O)n(C[C@H](C)C(=O)O)c(=O)n2Cc2ccc(C)cc2)ccc1CC(C)C [Compound I-1261] | 0.018 µM
19 | Cc1ccc(Cn2c(=O)n(C[C@H](C)C(=O)O)c(=O)[nH]/c2=N\c2ccc(Cc3ccncc3)cc2)cc1 [Compound I-1262] | 0.163 µM
20 | CC(C)(Cn1c(=O)[nH]/c(=N\c2ccc(OCC3CC3)cc2)n(Cc2ccc(Cl)cc2)c1=O)C(=O)O [Compound I-1263] | 0.025 µM
21 | COc1cc(/N=c2\[nH]c(=O)n(CCC(=O)O)c(=O)n2Cc2ccc(C)cc2)ccc1OC(C)C [Compound I-1264] | 0.031 µM
22 | COc1cc(/N=c2\[nH]c(=O)n(CC(C)(C)C(=O)O)c(=O)n2Cc2ccc(Cl)cc2)ccc1OC(C)C [Compound I-1265] | 0.022 µM

Row | SMILES | IC50
23 | CCCc1ccc(/N=c2\[nH]c(=O)n(C[C@H](C)C(=O)O)c(=O)n2Cc2ccc(C)cc2)cc1Cl [Compound I-1267] | 0.009 µM
24 | Cc1ccc(Cn2c(=O)n(CC(C)(C)C(=O)O)c(=O)[nH]/c2=N\c2ccc(OCC3CC3)cc2)cc1 [Compound I-1268] | 0.052 µM
25 | Cc1ccc(Cn2c(=O)n(C[C@H](C)C(=O)O)c(=O)[nH]/c2=N\c2ccc(Oc3ccnc(C)c3)cc2)cc1 [Compound I-1269] | 0.008 µM
26 | COc1cc(/N=c2\[nH]c(=O)n(C[C@H](C)C(=O)O)c(=O)n2Cc2ccc(Cl)cc2)ccc1CC(C)C [Compound I-1270] | 0.012 µM
27 | Cc1ccc(Cn2c(=O)n(CC(C)(C)C(=O)O)c(=O)[nH]/c2=N\c2cccc(C(F)(F)F)c2)cc1 [Compound I-1271] | 0.032 µM
28 | COC(=O)C(C)(C)Cn1c(=O)[nH]/c(=N\c2ccc(OC(C)C)c(OC)c2)n(Cc2ccc(C)cc2)c1=O [Compound I-1272] | 0.007 µM
29 | COC(=O)C(C)(C)Cn1c(=O)[nH]/c(=N\c2ccc(OC(C)C)c(OC)c2)n(Cc2ccc(Cl)cc2)c1=O [Compound I-1273] | 0.007 µM
30 | COC(=O)[C@@H](C)Cn1c(=O)[nH]/c(=N\c2ccc(Oc3ccnc(C)c3)cc2)n(Cc2ccc(C)cc2)c1=O [Compound I-1274] | 0.006 µM
31 | COC(=O)[C@@H](C)Cn1c(=O)[nH]/c(=N\c2ccc3nc(C)ccc3c2)n(Cc2ccc(C)cc2)c1=O [Compound I-1275] | 0.006 µM
32 | COC(=O)[C@@H](C)Cn1c(=O)[nH]/c(=N\c2ccc3nc(C)oc3c2)n(Cc2ccc(C)cc2)c1=O [Compound I-1276] | 0.078 µM
33 | CCCc1ccc(/N=c2\[nH]c(=O)n(C[C@H](C)C(=O)OC)c(=O)n2Cc2ccc(C)cc2)cc1Cl [Compound I-1277] | 0.015 µM
34 | Cc1ccc(Cn2c(=O)n(C[C@H](C)C(=O)O)c(=O)[nH]/c2=N\c2ccc3nc(C)ccc3c2)cc1 [Compound I-1278] | 0.033 µM
35 | Cc1ccc(Cn2c(=O)n(C[C@H](C)C(=O)O)c(=O)[nH]/c2=N\c2ccc3nc(C)oc3c2)cc1 [Compound I-1279] | 0.158 µM
36 | COc1cc(/N=c2\[nH]c(=O)n(CC(C)(C)C(=O)O)c(=O)n2Cc2ccc(C)cc2)ccc1OC(C)C [Compound I-1280] | 0.027 µM
37 | COC(=O)[C@@H](C)Cn1c(=O)[nH]/c(=N\c2ccc(OC3CCC3)cc2)n(Cc2ccc(Cl)cc2)c1=O [Compound I-1281] | 0.006 µM
38 | CCOC(=O)CCn1c(=O)[nH]/c(=N\c2ccc(OC3CCC3)cc2)n(Cc2ccc(C)cc2)c1=O [Compound I-1282] | 0.004 µM
39 | CCOC(=O)CCn1c(=O)[nH]/c(=N\c2ccc(OC3CCC3)cc2)n(Cc2ccc(Cl)cc2)c1=O [Compound I-1283] | 0.004 µM
40 | C[C@@H](Cn1c(=O)[nH]/c(=N\c2ccc(OC3CCC3)cc2)n(Cc2ccc(Cl)cc2)c1=O)C(=O)O [Compound I-1284] | 0.015 µM
41 | Cc1ccc(Cn2c(=O)n(CCC(=O)O)c(=O)[nH]/c2=N\c2ccc(OC3CCC3)cc2)cc1 [Compound I-1285] | 0.051 µM
42 | O=C(O)CCn1c(=O)[nH]/c(=N\c2ccc(OC3CCC3)cc2)n(Cc2ccc(Cl)cc2)c1=O [Compound I-1286] | 0.034 µM
43 | CC(C)n1c(=O)n(Cc2ccc(Cl)cc2)c(=O)n(Cc2ccc(C(F)(F)F)cc2)c1=O [Compound I-1289, 1-(4-chlorobenzyl)-3-isopropyl-5-(4-trifluoromethylbenzyl)-1,3,5-triazinane-2,4,6-trione] | 0.51 µM
44 | CC(C)Oc1cccc(Cn2c(=O)n(Cc3ccc(Cl)cc3)c(=O)n(C(C)C)c2=O)c1 [Compound I-1292] | 0.445 µM

Row | SMILES | IC50
45 | CC(C)Oc1ccc(/N=c2\[nH]c(=O)n(Cc3nnn[nH]3)c(=O)n2Cc2ccc(Cl)cc2)cc1F [Compound I-1297] | 0.026 µM
46 | CCOC(=O)CCn1c(=O)[nH]/c(=N\c2ccc(CC(C)C)c(F)c2)n(Cc2ccc(C)cc2)c1=O [Compound I-1298] | 0.026 µM
47 | Cc1ccc(Cn2c(=O)n(CCC(=O)O)c(=O)[nH]/c2=N\c2ccc(CC(C)C)c(F)c2)cc1 [Compound I-1299] | 0.051 µM
48 | CCOC(=O)CCn1c(=O)[nH]/c(=N\c2ccc(OC(C)C)c(C3CC3)c2)n(Cc2ccc(C)cc2)c1=O [Compound I-1300] | 0.018 µM
49 | COC(=O)[C@@H](C)Cn1c(=O)[nH]/c(=N\c2ccc(C=C(C)C)nc2)n(Cc2ccc(C)cc2)c1=O [Compound I-1301] | 0.514 µM
50 | COC(=O)[C@@H](C)Cn1c(=O)[nH]/c(=N\c2ccc(C(=O)C3CC3)cc2)n(Cc2ccc(C)cc2)c1=O [Compound I-1302] | 0.169 µM
51 | Cc1ccc(Cn2c(=O)n(CCC(=O)O)c(=O)[nH]/c2=N\c2ccc(OC(C)C)c(C3CC3)c2)cc1 [Compound I-1303] | 0.066 µM
52 | CC(C)=Cc1ccc(/N=c2\[nH]c(=O)n(C[C@H](C)C(=O)O)c(=O)n2Cc2ccc(C)cc2)cn1 [Compound I-1304] | 0.574 µM
53 | Cc1ccc(Cn2c(=O)n(C[C@H](C)C(=O)O)c(=O)[nH]/c2=N\c2ccc(C(=O)C3CC3)cc2)cc1 [Compound I-1305] | 0.227 µM
54 | CCCc1ccc(/N=c2\[nH]c(=O)n(C[C@H](C)C(=O)OC)c(=O)n2Cc2ccc(Cl)cc2)cc1OC [Compound I-1306] | 0.08 µM
55 | COC(=O)[C@H](C)[C@H](C)n1c(=O)[nH]/c(=N\c2ccc(OC(C)C)c(Br)c2)n(Cc2ccc(C)cc2)c1=O [Compound I-1307] | 0.007 µM
56 | CCOC(=O)CCn1c(=O)[nH]/c(=N\c2ccc(CC(C)C)c(OC)c2)n(Cc2ccc(Cl)cc2)c1=O [Compound I-1308] | 0.029 µM
57 | COC(=O)[C@H](C)[C@H](C)n1c(=O)[nH]/c(=N\c2cccc(C(F)(F)F)c2)n(Cc2ccc(C)cc2)c1=O [Compound I-1309] | 0.021 µM
58 | COC(=O)[C@@H](C)[C@@H](C)n1c(=O)[nH]/c(=N\c2ccc(OC(C)C)cc2)n(Cc2ccc(C)cc2)c1=O [Compound I-1310] | 0.066 µM
59 | COC(=O)[C@@H](C)[C@@H](C)n1c(=O)[nH]/c(=N\c2ccc(OC(C)C)c(F)c2)n(Cc2ccc(C)cc2)c1=O [Compound I-1311] | 0.023 µM
60 | COC(=O)[C@@H](C)[C@@H](C)n1c(=O)[nH]/c(=N\c2ccc(OC(C)C)c(C)c2)n(Cc2ccc(C)cc2)c1=O [Compound I-1312] | 0.045 µM
61 | CCCOc1ccc(/N=c2\[nH]c(=O)n([C@H](C)[C@H](C)C(=O)OC)c(=O)n2Cc2ccc(C)cc2)cc1 [Compound I-1313] | 0.062 µM
62 | COC(=O)[C@@H](C)[C@@H](C)n1c(=O)[nH]/c(=N\c2ccc(OCC3CC3)cc2)n(Cc2ccc(C)cc2)c1=O [Compound I-1314] | 0.059 µM
63 | COC(=O)[C@@H](C)[C@@H](C)n1c(=O)[nH]/c(=N\c2ccc(OC(C)C)c(F)c2)n(Cc2ccc(Cl)cc2)c1=O [Compound I-1315] | 0.04 µM
64 | COC(=O)[C@@H](C)[C@@H](C)n1c(=O)[nH]/c(=N\c2ccc(OCC3CC3)cc2)n(Cc2ccc(Cl)cc2)c1=O [Compound I-1316] | 0.054 µM
